Data taken from patent US8951992B2, “Mycobacterium membrane protease as a target for inhibitors of intrabacterial pH homeostasis” (Cornell University, priority 2008, dated 2015).

How the values were obtained:
Type in all cases: cell-based, Mycobacterium tuberculosis
[1] = system: Wild-type H37Rv transformed with pH-GFP; conditions: pH 4.5
[2] = system: Rv3671c mutant in IFN-γ-activated macrophages
[3] = system: Rv3671c mutant in IFN-γ-activated macrophages; remark: listed apart in the source
[4] = system: Rv3671c mutant
[5] = system: Rv3671c mutant; remark: listed apart in the source
[6] = system: Rv3671c mutant; remark: listed apart in the source
[7] = system: Rv3671c mutant; remark: listed apart in the source
[8] = system: lysX mutant

CC[C@@H](CO)NCCN[C@@H](CC)CO [Ethambutol]
concentrations causing a substantial decline in pHIB [1]: ≥ 8 μg/ml

Cl.N [NH4Cl]
effect on pHIB of the Rv3671c mutant [2]: protected
effect on survival of the Rv3671c mutant [3]: restored

CCCCCCCCCCCCOS(=O)(=O)[O-].[Na+] [SDS]
sensitivity of the Rv3671c mutant to SDS [4]: hypersensitive

N#CC(C#N)=NNc1cccc(Cl)c1 [carbonyl cyanide m-chlorophenylhydrazone]
effect on the Rv3671c mutant's pHIB [5]: further reduced
effect on the Rv3671c mutant's survival [6]: further attenuated

CC[C@H]1OC(=O)[C@H](C)[C@@H](O[C@H]2C[C@@](C)(OC)[C@@H](O)[C@H](C)O2)[C@H](C)[C@@H](O[C@@H]2O[C@H](C)C[C@H](N(C)C)[C@H]2O)[C@](C)(O)C[C@@H](C)C(=O)[C@H](C)[C@@H](O)[C@]1(C)O [erythromycin]
sensitivity of the Rv3671c mutant to the antibiotic [7]: hypersensitive
sensitivity of the lysX mutant to the antibiotic [8]: hypersensitive

NNC(=O)c1ccncc1 [isoniazid]
effect on Mtb's pHIB [1]: did not significantly alter pHIB

CC[C@@]1([C@@H]2O[C@@H]([C@H]3O[C@@](O)(CO)[C@H](C)C[C@@H]3C)C[C@@H]2C)CC[C@H]([C@]2(C)CC[C@]3(C[C@H](O)[C@@H](C)[C@@H]([C@@H](C)[C@@H](OC)[C@H](C)C(=O)O)O3)O2)O1 [monensin]
effect on Mtb's pHIB [1]: concentration dependent decline in pHIB
effect on the Rv3671c mutant's pHIB [5]: further reduced
effect on the Rv3671c mutant's survival [6]: further attenuated

NC(=O)c1cnccn1 [pyrazinmide]
effect on Mtb's pHIB [1]: did not significantly alter pHIB

CO[C@H]1/C=C/O[C@@]2(C)Oc3c(C)c(O)c4c(O)c(c(/C=N/N5CCN(C)CC5)c(O)c4c3C2=O)NC(=O)/C(C)=C\C=C\[C@H](C)[C@H](O)[C@@H](C)[C@@H](O)[C@@H](C)[C@H](OC(C)=O)[C@@H]1C [rifampin]
effect on Mtb's pHIB [1]: did not significantly alter pHIB
sensitivity of the Rv3671c mutant to the antibiotic [7]: hypersensitive
sensitivity of the lysX mutant to the antibiotic [8]: hypersensitive

[H]/N=C(/N)N[C@H]1[C@H](O)[C@@H](O)[C@H](O[C@@H]2O[C@@H](C)[C@](O)(C=O)[C@H]2O[C@@H]2O[C@@H](CO)[C@H](O)[C@@H](O)[C@@H]2NC)[C@@H](N/C(N)=N\[H])[C@@H]1O [streptomycin]
effect on Mtb's pHIB [1]: did not significantly alter pHIB
